Experimental findings from the supplement of paper PMC10307832 are described below.

Common to all, as to test: relative viability (nuclei count vs DMSO), 5 days (fraction); higher = more cells survive
Compound in the assay “FG-4592 + Dasatinib”: Cc1nc(C(=O)NCC(=O)O)c(O)c2ccc(Oc3ccccc3)cc12 [FG-4592] + Cc1nc(Nc2ncc(C(=O)Nc3c(C)cccc3Cl)s2)cc(N2CCN(CCO)CC2)n1 [Dasatinib] (partner 0.075 µM)
Put shortly: (§1)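 Five library-drug doses in √10 steps were combined with a fixed anchor-drug dose, or a single drug was given alone, by pin tool to lung cancer cell lines in 1536-well plates the day after seeding. Nuclei were stained and counted after 5 days. Relative viability is the nuclei count in treated wells over that in vehicle wells, taken as the median of duplicate plates.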

Compound in the assay “FG-4592 + Decitabine”: Cc1nc(C(=O)NCC(=O)O)c(O)c2ccc(Oc3ccccc3)cc12 [FG-4592] + Nc1ncn([C@H]2C[C@H](O)[C@@H](CO)O2)c(=O)n1 [Decitabine] (partner 2 µM)
The essentials: as §1

Compound in the assay “FG-4592 + Vorinostat”: Cc1nc(C(=O)NCC(=O)O)c(O)c2ccc(Oc3ccccc3)cc12 [FG-4592] + O=C(CCCCCCC(=O)Nc1ccccc1)NO [Vorinostat] (partner 1 µM)
The essentials: as §1

Compound in the assay “IU1-47 + Vorinostat”: CC1=CC(=C(N1C2=CC=C(C=C2)Cl)C)C(=O)CN3CCCCC3 [IU1-47] + O=C(CCCCCCC(=O)Nc1ccccc1)NO [Vorinostat] (partner 1 µM)
The essentials:
as §1

In the case of BEN, the relative viability in the assay with FG-4592 + Dasatinib (first compound 0.08 µM) was determined as 0.323; in the assay with FG-4592 + Dasatinib (first compound 0.253 µM), 0.348; with FG-4592 + Dasatinib (first compound 0.8 µM), 0.262; with FG-4592 + Dasatinib (first compound 2.53 µM) it was 0.365; with FG-4592 + Dasatinib (first compound 8 µM), 0.305; with FG-4592 + Decitabine (first compound 0.08 µM) it was 0.649. For the same cell line, the relative viability in the assay with FG-4592 + Decitabine (first compound 0.253 µM) turned out to be 0.651; with FG-4592 + Decitabine (first compound 0.8 µM) it was 0.555; in the assay with FG-4592 + Decitabine (first compound 2.53 µM), 0.738; with FG-4592 + Decitabine (first compound 8 µM), 0.607; with FG-4592 + Vorinostat (first compound 0.08 µM), 0.558; with FG-4592 + Vorinostat (first compound 0.253 µM), 0.566. Also, the relative viability stood at 0.459 with FG-4592 + Vorinostat (first compound 0.8 µM); 0.546 with FG-4592 + Vorinostat (first compound 2.53 µM); 0.547 in the assay with FG-4592 + Vorinostat (first compound 8 µM); 0.605 with IU1-47 + Vorinostat (first compound 0.08 µM); 0.653 with IU1-47 + Vorinostat (first compound 0.253 µM); 0.681 with IU1-47 + Vorinostat (first compound 0.8 µM). Besides, the relative viability in the assay with IU1-47 + Vorinostat (first compound 2.53 µM) is 0.564; with IU1-47 + Vorinostat (first compound 8 µM), 0.544.

With LCLC-103H, the relative viability in the assay with FG-4592 + Dasatinib (first compound 0.08 µM) was 0.414; in the assay with FG-4592 + Dasatinib (first compound 0.253 µM) it was 0.492; in the assay with FG-4592 + Dasatinib (first compound 0.8 µM) it was 0.311; in the assay with FG-4592 + Dasatinib (first compound 2.53 µM), 0.342; in the assay with FG-4592 + Dasatinib (first compound 8 µM), 0.408; with FG-4592 + Decitabine (first compound 0.08 µM), 0.773. Further, the relative viability is 0.747 with FG-4592 + Decitabine (first compound 0.253 µM); 0.664 with FG-4592 + Decitabine (first compound 0.8 µM); 0.741 in the assay with FG-4592 + Decitabine (first compound 2.53 µM); 0.66 in the assay with FG-4592 + Decitabine (first compound 8 µM); 0.75 with FG-4592 + Vorinostat (first compound 0.08 µM); 0.733 with FG-4592 + Vorinostat (first compound 0.253 µM). The relative viability came to 0.677 with FG-4592 + Vorinostat (first compound 0.8 µM); 0.707 with FG-4592 + Vorinostat (first compound 2.53 µM); 0.747 with FG-4592 + Vorinostat (first compound 8 µM); 0.748 in the assay with IU1-47 + Vorinostat (first compound 0.08 µM); 0.819 with IU1-47 + Vorinostat (first compound 0.253 µM); 0.82 in the assay with IU1-47 + Vorinostat (first compound 0.8 µM). The relative viability in the assay with IU1-47 + Vorinostat (first compound 2.53 µM) worked out at 0.561; with IU1-47 + Vorinostat (first compound 8 µM), 0.704.

For the cell line EKVX, the relative viability turned out to be 0.629 in the assay with FG-4592 + Dasatinib (first compound 0.08 µM); 0.555 with FG-4592 + Dasatinib (first compound 0.253 µM); 0.53 in the assay with FG-4592 + Dasatinib (first compound 0.8 µM); 0.486 in the assay with FG-4592 + Dasatinib (first compound 2.53 µM); 0.495 with FG-4592 + Dasatinib (first compound 8 µM); 0.325 in the assay with FG-4592 + Decitabine (first compound 0.08 µM). In addition, the relative viability in the assay with FG-4592 + Decitabine (first compound 0.253 µM) came to 0.368; with FG-4592 + Decitabine (first compound 0.8 µM), 0.287; in the assay with FG-4592 + Decitabine (first compound 2.53 µM) it was 0.319; with FG-4592 + Decitabine (first compound 8 µM), 0.341; with FG-4592 + Vorinostat (first compound 0.08 µM), 0.869; with FG-4592 + Vorinostat (first compound 0.253 µM) it was 0.619. Further, the relative viability was 0.64 in the assay with FG-4592 + Vorinostat (first compound 0.8 µM); 0.706 with FG-4592 + Vorinostat (first compound 2.53 µM); 0.784 in the assay with FG-4592 + Vorinostat (first compound 8 µM); 0.951 with IU1-47 + Vorinostat (first compound 0.08 µM); 0.632 in the assay with IU1-47 + Vorinostat (first compound 0.253 µM); 0.846 with IU1-47 + Vorinostat (first compound 0.8 µM). The relative viability with IU1-47 + Vorinostat (first compound 2.53 µM) turned out to be 0.573; in the assay with IU1-47 + Vorinostat (first compound 8 µM), 0.631.

Consider LXF-289, for which the relative viability turned out to be 0.22 in the assay with FG-4592 + Dasatinib (first compound 0.08 µM); 0.186 in the assay with FG-4592 + Dasatinib (first compound 0.253 µM); 0.19 with FG-4592 + Dasatinib (first compound 0.8 µM); 0.168 in the assay with FG-4592 + Dasatinib (first compound 2.53 µM); 0.189 with FG-4592 + Dasatinib (first compound 8 µM); 0.425 with FG-4592 + Decitabine (first compound 0.08 µM). Moreover, the relative viability in the assay with FG-4592 + Decitabine (first compound 0.253 µM) was determined as 0.386; in the assay with FG-4592 + Decitabine (first compound 0.8 µM), 0.35; in the assay with FG-4592 + Decitabine (first compound 2.53 µM), 0.378; with FG-4592 + Decitabine (first compound 8 µM), 0.305; with FG-4592 + Vorinostat (first compound 0.08 µM), 0.776; with FG-4592 + Vorinostat (first compound 0.253 µM), 0.742. Besides, the relative viability in the assay with FG-4592 + Vorinostat (first compound 0.8 µM) amounted to 0.857; with FG-4592 + Vorinostat (first compound 2.53 µM), 0.736; with FG-4592 + Vorinostat (first compound 8 µM) it was 0.797; in the assay with IU1-47 + Vorinostat (first compound 0.08 µM), 0.699; with IU1-47 + Vorinostat (first compound 0.253 µM) it was 0.839; with IU1-47 + Vorinostat (first compound 0.8 µM), 0.946. Moreover, the figures for the relative viability with IU1-47 + Vorinostat (first compound 2.53 µM) and in the assay with IU1-47 + Vorinostat (first compound 8 µM) were 0.751 and 0.752, respectively.

For ABC-1, the relative viability with FG-4592 + Dasatinib (first compound 0.08 µM) was found to be 0.532; in the assay with FG-4592 + Dasatinib (first compound 0.253 µM) it was 0.463; with FG-4592 + Dasatinib (first compound 0.8 µM), 0.48; in the assay with FG-4592 + Dasatinib (first compound 2.53 µM) it was 0.59; with FG-4592 + Dasatinib (first compound 8 µM) it was 0.463; with FG-4592 + Decitabine (first compound 0.08 µM) it was 0.87. Besides, the relative viability in the assay with FG-4592 + Decitabine (first compound 0.253 µM) was found to be 1.09; in the assay with FG-4592 + Decitabine (first compound 2.53 µM) it was 0.898; in the assay with FG-4592 + Decitabine (first compound 8 µM), 0.957; with FG-4592 + Vorinostat (first compound 0.08 µM), 1.14; with FG-4592 + Vorinostat (first compound 0.253 µM), 1.01; with FG-4592 + Vorinostat (first compound 2.53 µM), 1.14. For the same cell line, the relative viability is 1.03 with FG-4592 + Vorinostat (first compound 8 µM); 1.32 in the assay with IU1-47 + Vorinostat (first compound 0.08 µM); 1.08 with IU1-47 + Vorinostat (first compound 0.253 µM); 0.987 in the assay with IU1-47 + Vorinostat (first compound 0.8 µM); 1.06 in the assay with IU1-47 + Vorinostat (first compound 8 µM).

Consider NCI-H650, for which the relative viability in the assay with FG-4592 + Dasatinib (first compound 0.08 µM) was found to be 0.464; with FG-4592 + Dasatinib (first compound 0.253 µM) it was 0.491; with FG-4592 + Dasatinib (first compound 0.8 µM), 0.393; in the assay with FG-4592 + Dasatinib (first compound 2.53 µM), 0.407; in the assay with FG-4592 + Dasatinib (first compound 8 µM), 0.392; in the assay with FG-4592 + Decitabine (first compound 0.08 µM), 0.314. Also, the relative viability with FG-4592 + Decitabine (first compound 0.253 µM) is 0.275; in the assay with FG-4592 + Decitabine (first compound 0.8 µM), 0.301; with FG-4592 + Decitabine (first compound 2.53 µM) it was 0.296; with FG-4592 + Decitabine (first compound 8 µM), 0.306; with FG-4592 + Vorinostat (first compound 0.08 µM), 0.352; in the assay with FG-4592 + Vorinostat (first compound 0.253 µM) it was 0.574. Also, the relative viability came to 0.384 with FG-4592 + Vorinostat (first compound 0.8 µM); 0.339 with FG-4592 + Vorinostat (first compound 2.53 µM); 0.365 with FG-4592 + Vorinostat (first compound 8 µM); 0.61 with IU1-47 + Vorinostat (first compound 0.08 µM); 0.562 in the assay with IU1-47 + Vorinostat (first compound 0.253 µM); 0.451 with IU1-47 + Vorinostat (first compound 0.8 µM). The relative viability with IU1-47 + Vorinostat (first compound 2.53 µM) came to 0.37; with IU1-47 + Vorinostat (first compound 8 µM) it was 0.483.

For NCI-H1650, the relative viability in the assay with FG-4592 + Dasatinib (first compound 0.08 µM) was determined as 0.304; with FG-4592 + Dasatinib (first compound 0.253 µM), 0.361; with FG-4592 + Dasatinib (first compound 0.8 µM) it was 0.281; with FG-4592 + Dasatinib (first compound 2.53 µM), 0.295; in the assay with FG-4592 + Dasatinib (first compound 8 µM), 0.342; in the assay with FG-4592 + Decitabine (first compound 0.08 µM), 0.504. The relative viability was 0.378 in the assay with FG-4592 + Decitabine (first compound 0.253 µM); 0.358 with FG-4592 + Decitabine (first compound 0.8 µM); 0.421 with FG-4592 + Decitabine (first compound 2.53 µM); 0.331 with FG-4592 + Decitabine (first compound 8 µM); 0.762 in the assay with FG-4592 + Vorinostat (first compound 0.08 µM); 0.53 with FG-4592 + Vorinostat (first compound 0.253 µM). In addition, the relative viability came out at 0.502 with FG-4592 + Vorinostat (first compound 0.8 µM); 0.55 in the assay with FG-4592 + Vorinostat (first compound 2.53 µM); 0.465 with FG-4592 + Vorinostat (first compound 8 µM); 0.631 with IU1-47 + Vorinostat (first compound 0.08 µM); 0.523 with IU1-47 + Vorinostat (first compound 0.253 µM); 0.62 with IU1-47 + Vorinostat (first compound 0.8 µM). The relative viability amounted to 0.564 with IU1-47 + Vorinostat (first compound 2.53 µM) and 0.722 with IU1-47 + Vorinostat (first compound 8 µM).
